Source: US20200405666A9, “TREATMENT OF SYMPTOMS ASSOCIATED WITH FEMALE GASTROPARESIS” (priority 2011, published 2020)

System: symptoms of diabetic gastroparesis
Assay: Phase 2 randomized, double-blind, placebo-controlled study METO-IN-002 of metoclopramide nasal spray: symptom scores (mGCSI-DD, GCSI-DD, PAGI-SYM, other endpoints)
Assay type: in vivo, human
Parameters: key to Stomach Fullness / Early Satiety / Feeling Full / Loss of Appetite / Bloating / Stomach Larger / Upper Abdominal Pain / Upper Abdominal Discomfort / mGCSI-DD (primary endpoint) / Nausea / Retching / Vomiting / Sheehan Disability Scales / Investigator Assessment of Overall Gastroparesis Severity / Subject Assessment of Overall Gastroparesis Severity / Investigator Assessment of Overall Treatment Effect / Subject Assessment of Overall Treatment Effect / Days w/o Vomiting / Days w/o Nausea / Days w/o Vomiting or Nausea / Days w/o Upper Abdominal Pain or Upper Abdominal Discomfort / Nausea Response by Response Threshold / GCSI-DD / Days w/o Vomiting or Retching &, No Use of Rescue Medication / Nausea Responder Analysis / Overall Severity of Gastroparesis Symptoms - Subject / PAGI-SYM Questionnaire / Nausea/Vomiting (listed under PAGI-SYM Questionnaire) / Bloating (listed under PAGI-SYM Questionnaire) / Upper Abdominal Pain/Discomfort (listed under PAGI-SYM Questionnaire) / Early Satiety (listed under PAGI-SYM Questionnaire): A=Favors Active; P=Favors Placebo
Details: for mGCSI-DD (primary endpoint) / Bloating / Bloating (listed under PAGI-SYM Questionnaire) / Days w/o Nausea / Days w/o Upper Abdominal Pain or Upper Abdominal Discomfort / Days w/o Vomiting / Days w/o Vomiting or Nausea / Days w/o Vomiting or Retching &, No Use of Rescue Medication / Early Satiety / Early Satiety (listed under PAGI-SYM Questionnaire) / Feeling Full / GCSI-DD / Investigator Assessment of Overall Gastroparesis Severity / Investigator Assessment of Overall Treatment Effect / Loss of Appetite / Nausea / Nausea Responder Analysis / Nausea Response by Response Threshold / Nausea/Vomiting (listed under PAGI-SYM Questionnaire) / Overall Severity of Gastroparesis Symptoms - Subject / PAGI-SYM Questionnaire / Retching / Sheehan Disability Scales / Stomach Fullness / Stomach Larger / Subject Assessment of Overall Gastroparesis Severity / Subject Assessment of Overall Treatment Effect / Upper Abdominal Discomfort / Upper Abdominal Pain / Upper Abdominal Pain/Discomfort (listed under PAGI-SYM Questionnaire) / Vomiting: Week 4, vs placebo
Experimental: Example 1: A Multicenter, Randomized, Double-Blind, Placebo-Controlled, Parallel Group, Dose-Ranging Clinical Study to Evaluate the Efficacy and Safety of Metoclopramide Nasal Spray Solution in Diabetic Subjects with Gastroparesis
The objectives of this study were to evaluate the safety and the effectiveness of two doses of metoclopramide nasal spray solution, 10 mg and 14 mg, compared to placebo in reducing the symptoms of diabetic gastroparesis and to assess the plasma concentrations of two doses of metoclopramide nasal spray in subjects with diabetic gastroparesis following a single dose and at steady state. The aforementioned dosages for the treatment and control of gastroparesis were administered before meals and/or before bed time. Subjects who met the entry criteria after the Washout Period (Day −7 to Day −1) were randomized using an IVRS, to metoclopramide nasal spray 10 mg, 14 mg, or placebo, in roughly equal numbers (approximately 1:1:1) using a predetermined randomization schedule employing permuted blocks. Randomization was preformed centrally.
Metoclopramide nasal spray solution, 200 mg/mL base (as monohydrochloride monohydrate) is a clear colorless to pale-yellow aqueous solution manufactured for Evoke Pharma. The metoclopramide nasal spray was packaged in a 10 mL amber glass vial mounted with a metered nasal spray pump. The metered dose vial delivered a 50 μL or 70 μL spray (10 mg or 14 mg of metoclopramide base respectively) with each actuation. One 10 mL vial contained sufficient metoclopramide nasal spray to deliver 120 doses of 10 mg or 14 mg.
A vehicle control was used as the placebo for metoclopramide nasal spray solution. The placebo spray was packaged in a 10 mL amber glass vial mounted with a metered nasal spray pump. The metered dose vial delivered a 50 μL spray with each actuation. One 10 mL vial contained sufficient placebo to deliver 120 doses. The delivery of either a 50 μL or 70 μL spray is indistinguishable to the subject or study staff.
A 7-day Washout Period preceded randomization. During this time, and for the duration of the study, subjects were asked to discontinue use of all medications that are known to ameliorate or exacerbate symptoms associated with diabetic gastroparesis. Subjects were trained on the use of an interactive voice response system (IVRS) to record the severity of nine gastroparesis symptoms of the GCSI-DD and additional symptoms such as: severity of abdominal pain and abdominal discomfort, number of hours of nausea, number of episodes of vomiting, and overall severity of gastroparesis symptoms in a daily diary. The IVRS was used during the treatment period for self-reported assessments. Subjects completed these diary assessments via the IVRS each evening.
Subjects with a mean GCSI-DD total score of <2.0 or >4.0 during the 7-day Washout Period were excluded from the study.
At the Randomization Visit (Day 0), the Patient Assessment of Upper Gastrointestinal Disorders Symptoms (PAGI-SYM) Questionnaire, and disability questionnaires were administered to the subject and the Investigator and subject assessed overall gastroparesis symptom severity (OGS) prior to taking study drug. Subjects began taking the study drug at the clinical site with a single dose on Day 0. The subjects returned to the clinic for safety and efficacy evaluations on Visits 4, 5, 6, and 7 (Days 7, 14, 21, and 28).
At each scheduled study visit to the clinical study site, the IVRS daily diary compliance was reviewed. In addition, at Visit 5 (Day 14), the PAGI-SYM Questionnaire was administered to the subject and the Investigator and subject assessed OGS severity. At the Final Visit (Day 28) subjects took their last dose of study drug at the clinical site and returned their vial of unused/remaining study drug. The subject completed the PAGI-SYM, and disability questionnaires. The Investigator and subject assessed OGS and overall treatment effect (OTE). […]

[1] = males, 10 mg IN four times daily
[2] = males, 10 mg IN four times daily, listed as Metoclopramide
[3] = males, 14 mg IN four times daily

SMILES: CCN(CC)CCNC(=O)c1cc(Cl)c(N)cc1OC [metoclopramide, -amino-5-chloro-N-(2-(diethylamino)ethyl)-2-methoxybenzamide]
- mGCSI-DD (primary endpoint) (females, 14 mg IN four times daily): A (p < 0.05)
- Mean mGCSI-DD total score at Week 4 (females, 14 mg IN four times daily, listed as Metoclopramide): 1.7
- Difference of Least Square Means, mGCSI-DD change from Baseline to Week 4 (females, 14 mg IN vs Metoclopramide 10 mg): −0.00
- Difference of Least Square Means, mGCSI-DD change from Baseline to Week 4 (females, 14 mg IN vs placebo): −0.38
- Symptoms that showed a positive trend (male subjects, 11 symptoms collected): 1 of 11
- Statistically significant improvement in mGCSI-DD score (in words) (males, 10 mg IN and 14 mg IN arms, Baseline to Week 4): did not experience significant improvement
- Mean Change from Baseline to Week 4 in mGCSI-DD [1]: −1.2 (−1.2)
- Mean mGCSI-DD total score at Week 4 [1]: 1.6 (1.6)
- Bloating [1]: P
- Bloating (listed under PAGI-SYM Questionnaire) [1]: P
- Days w/o Nausea [1]: P
- Days w/o Upper Abdominal Pain or Upper Abdominal Discomfort [1]: P
- Days w/o Vomiting [1]: P
- Days w/o Vomiting or Nausea [1]: P
- Days w/o Vomiting or Retching &, No Use of Rescue Medication [1]: A
- Early Satiety [1]: P
- Early Satiety (listed under PAGI-SYM Questionnaire) [1]: P
- Feeling Full [1]: P
- GCSI-DD [1]: P
- Investigator Assessment of Overall Gastroparesis Severity [1]: P
- Investigator Assessment of Overall Treatment Effect [1]: A
- Loss of Appetite [1]: P
- Nausea [1]: P
- Nausea Responder Analysis [1]: P
- Nausea Response by Response Threshold [1]: P
- Nausea/Vomiting (listed under PAGI-SYM Questionnaire) [1]: P
- Overall Severity of Gastroparesis Symptoms - Subject [1]: A
- PAGI-SYM Questionnaire [1]: P
- Retching [1]: P
- Sheehan Disability Scales [1]: A
- Stomach Fullness [1]: P
- Stomach Larger [1]: P
- Subject Assessment of Overall Gastroparesis Severity [1]: P
- Subject Assessment of Overall Treatment Effect [1]: A
- Upper Abdominal Discomfort [1]: P
- Upper Abdominal Pain [1]: P
- Upper Abdominal Pain/Discomfort (listed under PAGI-SYM Questionnaire) [1]: P
- Vomiting [1]: A
- mGCSI-DD (primary endpoint) [1]: P
- Mean Change from Baseline to Week 4 in mGCSI-DD [2]: −1.2
- Mean mGCSI-DD total score at Week 4 [2]: 1.6
- Difference of Least Square Means, mGCSI-DD change from Baseline to Week 4 (males, 10 mg IN vs placebo): 0.18
- Mean Change from Baseline to Week 4 in mGCSI-DD [3]: −0.9
- Mean mGCSI-DD total score at Week 4 [3]: 1.7 (1.7)
- Bloating [3]: P
- Bloating (listed under PAGI-SYM Questionnaire) [3]: P (p < 0.05)
- Days w/o Nausea [3]: P
- Days w/o Upper Abdominal Pain or Upper Abdominal Discomfort [3]: P (p < 0.05)
- Days w/o Vomiting [3]: P
- Days w/o Vomiting or Nausea [3]: P
- Days w/o Vomiting or Retching &, No Use of Rescue Medication [3]: A
- Early Satiety [3]: P (p < 0.05) and P
- Early Satiety (listed under PAGI-SYM Questionnaire) [3]: P (p < 0.05)
- Feeling Full [3]: P
- GCSI-DD [3]: P
- Investigator Assessment of Overall Gastroparesis Severity [3]: P
- Investigator Assessment of Overall Treatment Effect [3]: P
- Loss of Appetite [3]: P (p < 0.05)
- Nausea [3]: P
- Nausea Responder Analysis [3]: P
- Nausea Response by Response Threshold [3]: P
- Nausea/Vomiting (listed under PAGI-SYM Questionnaire) [3]: P
- Overall Severity of Gastroparesis Symptoms - Subject [3]: A
- PAGI-SYM Questionnaire [3]: P
- Retching [3]: P
- Sheehan Disability Scales [3]: A
- Stomach Fullness [3]: P
- Stomach Larger [3]: P (p < 0.05)
- Subject Assessment of Overall Gastroparesis Severity [3]: P
- Subject Assessment of Overall Treatment Effect [3]: P
- Upper Abdominal Discomfort [3]: P
- Upper Abdominal Pain [3]: P
- Upper Abdominal Pain/Discomfort (listed under PAGI-SYM Questionnaire) [3]: P
- Vomiting [3]: A
- mGCSI-DD (primary endpoint) [3]: P
- Mean mGCSI-DD total score at Week 4 (males, 14 mg IN four times daily, listed as Metoclopramide): 1.7
- Difference of Least Square Means, mGCSI-DD change from Baseline to Week 4 (males, 14 mg IN vs Metoclopramide 10 mg): 0.14
- Difference of Least Square Means, mGCSI-DD change from Baseline to Week 4 (males, 14 mg IN vs placebo): 0.32
